Results taken from patent US11576922B2, “CD73 inhibitors” (ORIC Pharmaceuticals, Inc., priority 2017, dated 2023).

Biological target: T1, CD73 (Homo sapiens, UniProt P21589)
T1 sequence (P21589 27-549): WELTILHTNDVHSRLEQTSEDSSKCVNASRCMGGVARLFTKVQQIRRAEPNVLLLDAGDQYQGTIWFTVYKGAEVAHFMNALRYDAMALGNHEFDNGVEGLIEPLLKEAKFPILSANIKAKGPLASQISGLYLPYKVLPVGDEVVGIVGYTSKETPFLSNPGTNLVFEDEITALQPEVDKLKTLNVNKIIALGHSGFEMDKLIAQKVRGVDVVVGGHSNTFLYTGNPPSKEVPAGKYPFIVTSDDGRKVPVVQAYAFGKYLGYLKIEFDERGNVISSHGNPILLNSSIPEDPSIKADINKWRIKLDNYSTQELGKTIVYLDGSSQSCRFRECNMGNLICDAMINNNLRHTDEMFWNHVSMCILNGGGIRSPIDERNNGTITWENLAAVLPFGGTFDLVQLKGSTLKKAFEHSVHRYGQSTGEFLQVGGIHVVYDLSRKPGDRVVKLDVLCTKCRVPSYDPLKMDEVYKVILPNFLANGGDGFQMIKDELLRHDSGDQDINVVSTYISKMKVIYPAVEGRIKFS
Assay: Example A1: Biochemical Assay (CD73 inhibition, Malachite Green detection of AMP hydrolysis)
Details: CD73 0.3208 nM, AMP 15 μM, Tris-HCl pH 7.4, Malachite Green, absorbance 620 nm; read-out: Biochemical IC50
Description: Example A1: Biochemical Assay
Assay Reaction Conditions
• Assay Volume: 70 μl • Reaction Volume: 50 μl • CD73: 0.3208 nM • AMP: 15 μM • Assay Buffer: 2 5 mM Tris-HCL, pH 7.4, 0.01% Brij-35, 0.01% BSA, 5 mM MgCl2 Assay Procedure:
Made dose titration of testing compounds in assay buffer, 10 points ½ log titrations in duplicates starting at 100 μM.
Added 25 μl of CD73 to each well for a final concentration of […].
Incubated at RT for 15 min.
Added 25 μl of AMP to each well for a final concentration of 15 μM.
Incubated at RT for 10 min.
Added 10 μl of Malachite Green Reagent A, incubate at RT for 10 min.
Added 10 μl of Malachite Green Reagent B, incubate at RT for 45 min.
Read the Absorbance on Envision plate reader using excitation filter: Cy5 […].
The ability of the compounds disclosed herein to inhibit CD73 activity was quantified and the respective IC50 values were determined. Table 1 provides the biochemical IC50 values of compounds disclosed herein.

IC50 [nM]	SMILES
< 100	Cc1nn([C@@H]2O[C@H](COP(=O)(O)CP(=O)(O)O)[C@@H](O)[C@H]2O)c2nc(Cl)nc(NCc3ccccc3Cl)c12 [Example 44, (((((2R,3S,4R,5R)-5-(6-chloro-4-((2-chlorobenzyl)amino)-3-methyl-1H-pyrazolo[3,4-d]pyrimidin-1-yl)-3,4-dihydroxytetrahydrofuran-2-yl)methoxy)(hydroxy)phosphoryl)methyl) phosphonic acid]
100 to 1000	C[C@@H](Nc1nc(Cl)nc2c1cnn2[C@@H]1O[C@H](COP(=O)(O)CP(=O)(O)O)[C@@H](O)[C@H]1O)c1ccccc1Cl [Example 45, (((((2R,3S,4R,5R)-5-(6-chloro-4-(((R)-1-(2-chlorophenyl)ethyl)amino)-1H-pyrazolo[3,4-d]pyrimidin-1-yl)-3,4-dihydroxytetrahydrofuran-2-yl)methoxy)(hydroxy)phosphoryl)methyl) phosphonic acid]
> 1000	C[C@H](Nc1nc(Cl)nc2c1cnn2[C@@H]1O[C@H](COP(=O)(O)CP(=O)(O)O)[C@@H](O)[C@H]1O)c1ccccc1Cl [Example 46, (((((2R,3S,4R,5R)-5-(6-chloro-4-(((S)-1-(2-chlorophenyl)ethyl)amino)-1H-pyrazolo[3,4-d]pyrimidin-1-yl)-3,4-dihydroxytetrahydrofuran-2-yl)methoxy)(hydroxy)phosphoryl)methyl) phosphonic acid]
< 100	CN(Cc1ccccc1)c1nc(Cl)nc2c1cnn2[C@@H]1O[C@H](COP(=O)(O)CP(=O)(O)O)C[C@H]1O [Example 47, (((((2S,4R,5R)-5-(4-(benzyl(methyl)amino)-6-chloro-1H-pyrazolo[3,4-d]pyrimidin-1-yl)-4-hydroxytetrahydrofuran-2-yl)methoxy)(hydroxy)phosphoryl)methyl) phosphonic acid]
< 100	O=P(O)(O)CP(=O)(O)OC[C@@H]1C[C@@H](O)[C@H](n2ncc3c(NCc4ccccc4Cl)nc(Cl)nc32)O1 [Example 48, (((((2S,4R,5R)-5-(6-chloro-4-((2-chlorobenzyl)amino)-1H-pyrazolo[3,4-d]pyrimidin-1-yl)-4-hydroxytetrahydrofuran-2-yl)methoxy)(hydroxy)phosphoryl)methyl) phosphonic acid]
< 100	CN(c1nc(Cl)nc2c1cnn2[C@@H]1O[C@H](COP(=O)(O)CP(=O)(O)O)[C@@H](O)[C@H]1O)[C@@H]1CCc2ccccc21 [Example 50, (((((2R,3S,4R,5R)-5-(6-chloro-4-(((R)-2,3-dihydro-1H-inden-1-yl)(methyl)amino)-1H-pyrazolo[3,4-d]pyrimidin-1-yl)-3,4-dihydroxytetrahydrofuran-2-yl)methoxy)(hydroxy)phosphoryl)methyl) phosphonic acid]

Continued, compound first:

SMILES	IC50 [nM]
C[C@@]1(O)[C@@H](COP(=O)(O)CP(=O)(O)O)O[C@@H](n2ncc3c(NCc4ccccc4Cl)nc(Cl)nc32)[C@@H]1O [Example 40, (((((2R,3S,4R,5R)-5-(6-Chloro-4-((2-chlorobenzyl)amino)-1H-pyrazolo[3,4-d]pyrimidin-1-yl)-3,4-dihydroxy-3-methyltetrahydrofuran-2-yl)methoxy)(hydroxy)phosphoryl)methyl)phosphonic acid]	< 100
O=P(O)(O)CP(=O)(O)OC[C@H]1O[C@@H](n2ncc3c(NCc4ccccc4Cl)nc(Cl)nc32)C[C@@H]1O [Example 41, (((((2R,3S,5R)-5-(6-chloro-4-((2-chlorobenzyl)amino)-1H-pyrazolo[3,4-d]pyrimidin-1-yl)-3-hydroxytetrahydrofuran-2-yl)methoxy)(hydroxy)phosphoryl)methyl) phosphonic acid]	100 to 1000
C[C@H](c1ccccc1)N(C)c1nc(Cl)nc2c1cnn2[C@@H]1O[C@H](COP(=O)(O)CP(=O)(O)O)[C@@H](O)[C@H]1O [Example 42, (((((2R,3S,4R,5R)-5-(6-chloro-4-(methyl((R)-1-phenylethyl)amino)-1H-pyrazolo[3,4-d]pyrimidin-1-yl)-3,4-dihydroxytetrahydrofuran-2-yl)methoxy)(hydroxy)phosphoryl)methyl) phosphonic acid]	< 100
Cc1nn([C@@H]2O[C@H](COP(=O)(O)CP(=O)(O)O)[C@@H](O)[C@H]2O)c2nc(Cl)nc(N(C)Cc3ccccc3)c12 [Example 43, (((((2R,3S,4R,5R)-5-(4-(benzyl(methyl)amino)-6-chloro-3-methyl-1H-pyrazolo[3,4-d]pyrimidin-1-yl)-3,4-dihydroxytetrahydrofuran-2-yl)methoxy)(hydroxy)phosphoryl)methyl) phosphonic acid]	< 100
COP(=O)(CP(=O)(O)O)OC[C@H]1O[C@@H](n2ncc3c(NCc4ccccc4Cl)nc(Cl)nc32)[C@H](O)[C@@H]1O (stereo partly drawn) [Example 49, (((((2R,3S,4R,5R)-5-(6-chloro-4-((2-chlorobenzyl)amino)-1H-pyrazolo[3,4-d]pyrimidin-1-yl)-3,4-dihydroxytetrahydrofuran-2-yl)methoxy)(methoxy)phosphoryl)methyl) phosphonic acid]	< 100
